What all share (format): functional
For assay [1], the system named is A549. In words: Growth inhibition of human A549 cells after 72 hrs by MTT assay. To be noted: A549, 72 h.
Assay [2] relates to NCI-H226. As to the kind of experiment: Growth inhibition of human NCI-H226 cells after 72 hrs by MTT assay. To be noted: NCI-H226, 72 h.
The subject of assay [3] is NCI-H226. As to the kind of experiment: Cytotoxicity against human NCI-H226 cells after 72 hrs by MTT assay. The conditions noted are these: NCI-H226, 72 h.
Assay [4] relates to A549. As to the kind of experiment: Cytotoxicity against human A549 cells after 72 hrs by MTT assay. The conditions noted are these: A549, 72 h, read-out: pLC50 (the source's name) (converted).

SMILES strings stand for the structures.

On to `CN(C)c1ccc(/C=C(\C#N)c2cccc[n+]2C)cc1`, for which the 50% growth inhibitory concentration (GI50) is 3.8 µM in the assay with A549 [1] and 19.5 µM with NCI-H226 [2].
With `Cn1cccc1/C=C/c1cc[n+](C)cc1`, the figures for the GI50 in the assay with A549 [1] and in the assay on NCI-H226 [2] were 1.66 µM and 100 µM, respectively.
For the compound `CCCCN(CCCC)c1ccc(-c2ccc(/C=C/c3ccc4ccccc4[n+]3C)s2)s1`, the GI50 was 0.01 µM in the assay with A549 [1] and 0.0457 µM with NCI-H226 [2]. Moreover, the LC50 in the assay with NCI-H226 [3] is 10 µM.
For the compound `CN(C)c1ccc(/C=C/c2ccc3ccccc3[n+]2C)cc1`, the results for the GI50 in the assay with A549 [1] and in the assay with NCI-H226 [2] were 1.55 µM and 0.631 µM, respectively. Also, the CC50 with A549 [4] is 70.8 µM.
Turning to `CN(C)c1ccc(/C=C/c2cccc(/C=C/c3ccc(N(C)C)cc3)[n+]2C)cc1`, the figures for the GI50 in the assay with A549 [1] and in the assay with NCI-H226 [2] were 0.372 µM and 0.0447 µM, respectively. Further, the CC50 in the assay on A549 [4] was 13.2 µM. Besides, the LC50 in the assay on NCI-H226 [3] was 13.8 µM.
Take `CCCCN(CCCC)c1ccc(-c2ccc(/C=C/c3cccc(/C=C/c4ccc(-c5ccc(N(CCCC)CCCC)s5)s4)[n+]3C)s2)s1`: the GI50 in the assay with A549 [1] is 4.79 µM; in the assay on NCI-H226 [2], 1 µM.
As to `C[n+]1c(/C=C/c2ccc(N(c3ccccc3)c3ccccc3)cc2)cccc1/C=C/c1ccc(N(c2ccccc2)c2ccccc2)cc1`, the GI50 was 3.16 µM in the assay on A549 [1] and 2 µM with NCI-H226 [2]. The CC50 with A549 [4] was 39.8 µM. The compound also gave an LC50 in the assay with NCI-H226 [3] of 33.1 µM.
In the case of `CN(C)c1ccc(/C=C/c2cc[n+](C)cc2)cc1`, the GI50 with A549 [1] was 1.58 µM; in the assay on NCI-H226 [2], 10 µM.
For `Cn1cccc1/C=C/c1cccc[n+]1C`, the GI50 is 22.9 µM in the assay on A549 [1] and 100 µM in the assay on NCI-H226 [2].
As for `C[n+]1c(/C=C/c2ccc(-c3ccccc3)s2)ccc2ccccc21`, the GI50 in the assay on A549 [1] is 2 µM; in the assay with NCI-H226 [2], 1.45 µM. This compound showed an LC50 with NCI-H226 [3] of 38 µM.

The record behind these values is ChEMBL document CHEMBL1926608, “Design, synthesis and in vitro antitumour activity of new heteroaryl ethylenes” (2012).
